According to patent US20260183297A1, “SELECTION OF PATIENTS FOR THE TREATMENT OF FADS1-MEDIATED DISEASES OR DISORDERS USING FADS-1 INHIBITORS” (AMGEN INC., priority 2022, published 2026):
Marks after values point to notes of the source that are not given here.

Experiment: Fatty acid concentration and composition of plasma lipid subfractions (GC) of Compound A-treated DIO mice
Type: in vivo, mouse
Conditions: DIO mouse plasma, 30 mg/kg, GC
Experimental: FIG. 16(b) provides fatty acid composition of total plasma and each of the 4 plasma lipid subfractions of vehicle treated (WT) and 30 mg/kg Compound A-treated WT DIO mice (WT+A). (a-b) n=3 samples per group (each sample pooled from 2 mice). (a) Data are shown as minimum to maximum. t-test *P<0.05, **P<0.01, ***P<0.001.

[1] = Phospholipids, mean % composition
[2] = Total lipids, mean % composition
[3] = Triglycerides, mean % composition

COc1ccn2c(=O)c(-c3cnn(CC(F)(F)C(F)(F)F)c3)c(C(F)(F)F)nc2c1 [Compound A, 8-methoxy-3-(1-(2,2,3,3,3-pentafluoropropyl)-1H-pyrazol-4-yl)-2-(trifluoromethyl)-4H-pyrido[1,2-a]pyrimidin-4-one]
C16:1n7t composition, Phospholipids [1]: 0.05%
C18:0 composition, Phospholipids [1]: 14.4*** %
C18:1n9 composition, Phospholipids [1]: 12.3** %
C18:1t composition, Phospholipids [1]: 0.18%
C18:2n6 composition, Phospholipids [1]: 19.0%
C18:2n6t composition, Phospholipids [1]: 0.22** %
C18:3n3 composition, Phospholipids [1]: 0.05%
C18:3n6 composition, Phospholipids [1]: 0.2* %
C20:0 composition, Phospholipids [1]: 0.07* %
C20:1n9 composition, Phospholipids [1]: 0.28%
C20:2n6 composition, Phospholipids [1]: 0.43* %
C20:3n6 composition, Phospholipids [1]: 18.2*** %
C20:4n6 composition, Phospholipids [1]: 1.49*** %
C20:5n3 composition, Phospholipids [1]: 0.06* %
C22:0 composition, Phospholipids [1]: 0.08%
C22:4n6 composition, Phospholipids [1]: 0.10*** %
C22:5n3 composition, Phospholipids [1]: 0.61%
C22:5n6 composition, Phospholipids [1]: 0.09** %
C22:6n3 composition, Phospholipids [1]: 3.33*** %
C24:0 composition, Phospholipids [1]: 0.04%
C24:1n9 composition, Phospholipids [1]: 0.16%
C14:0 concentration, Total (Total lipids, mean): 7.7 µg/mL
C16:0 concentration, Total (Total lipids, mean): 635 µg/mL
C16:1n7 concentration, Total (Total lipids, mean): 41.4 µg/mL
C18:0 concentration, Total (Total lipids, mean): 285** μg mL^−1
C18:1n9 concentration, Total (Total lipids, mean): 478 µg/mL
C18:1t concentration, Total (Total lipids, mean): 3.6 µg/mL
C18:2n6 concentration, Total (Total lipids, mean): 870 µg/mL
C18:2n6t concentration, Total (Total lipids, mean): 6.0 µg/mL
C18:3n3 concentration, Total (Total lipids, mean): 5.9** μg mL^−1
C18:3n6 concentration, Total (Total lipids, mean): 23.3** μg mL^−1
C20:0 concentration, Total (Total lipids, mean): 2.3** μg mL^−1
C20:1n9 concentration, Total (Total lipids, mean): 8.4 µg/mL
C20:3n6 concentration, Total (Total lipids, mean): 465*** μg mL^−1
C20:4n6 concentration, Total (Total lipids, mean): 92.3** μg mL^−1
C20:5n3 concentration, Total (Total lipids, mean): 2.7** μg mL^−1
C22:0 concentration, Total (Total lipids, mean): 3.3** μg mL^−1
C22:4n6 concentration, Total (Total lipids, mean): 2.1*** μg mL^−1
C22:5n3 concentration, Total (Total lipids, mean): 2.8*** μg mL^−1
C22:5n6 concentration, Total (Total lipids, mean): 2.4*** μg mL^−1
C22:6n3 concentration, Total (Total lipids, mean): 98.5** μg mL^−1
C24:1n9 concentration, Total (Total lipids, mean): 6.9 µg/mL
Total fatty acids concentration, Total (Total lipids, mean): 3058* μg mL^−1
C14:0 composition, Total [2]: 0.25%
C16:0 composition, Total [2]: 20.8%
C16:1n7 composition, Total [2]: 1.35%
C16:1n7t composition, Total [2]: 0.1%
C18:0 composition, Total [2]: 9.3%
C18:1n9 composition, Total [2]: 15.7%
C18:1t composition, Total [2]: 0.12%
C18:2n6 composition, Total [2]: 28.5%
C18:2n6t composition, Total [2]: 0.2%
C18:3n3 composition, Total [2]: 0.19%
C18:3n6 composition, Total [2]: 0.76%
C20:0 composition, Total [2]: 0.08%
C20:1n9 composition, Total [2]: 0.27%
C20:2n6 composition, Total [2]: 0.32%
C20:3n6 composition, Total [2]: 15.2%
C20:4n6 composition, Total [2]: 3.01%
C20:5n3 composition, Total [2]: 0.09*** %
C22:0 composition, Total [2]: 0.11%
C22:4n6 composition, Total [2]: 0.07*** %
C22:5n3 composition, Total [2]: 0.09*** %
C22:5n6 composition, Total [2]: 0.08*** %
C22:6n3 composition, Total [2]: 3.22%
C24:0 composition, Total [2]: 0.06%
C24:1n9 composition, Total [2]: 0.23** %
C14:0 concentration, Triglycerides (Triglycerides, mean): 26.7 µg/mL
C16:0 concentration, Triglycerides (Triglycerides, mean): 135 µg/mL
C16:1n7 concentration, Triglycerides (Triglycerides, mean): 6.2 µg/mL
C16:1n7t concentration, Triglycerides (Triglycerides, mean): 0.7 µg/mL
C18:0 concentration, Triglycerides (Triglycerides, mean): 80.4 µg/mL
C18:1n9 concentration, Triglycerides (Triglycerides, mean): 161* μg mL^−1
C18:1t concentration, Triglycerides (Triglycerides, mean): 6.1 µg/mL
C18:2n6 concentration, Triglycerides (Triglycerides, mean): 42.6** μg mL^−1
C18:2n6t concentration, Triglycerides (Triglycerides, mean): 9.0 µg/mL
C18:3n3 concentration, Triglycerides (Triglycerides, mean): 1.8 µg/mL
C18:3n6 concentration, Triglycerides (Triglycerides, mean): 0.7 µg/mL
C20:0 concentration, Triglycerides (Triglycerides, mean): 1.6 µg/mL
C20:1n9 concentration, Triglycerides (Triglycerides, mean): 5.6* μg mL^−1
C20:2n6 concentration, Triglycerides (Triglycerides, mean): 1.7 µg/mL
C20:3n6 concentration, Triglycerides (Triglycerides, mean): 8.3 µg/mL
C20:4n6 concentration, Triglycerides (Triglycerides, mean): 2.5*** μg mL^−1
C20:5n3 concentration, Triglycerides (Triglycerides, mean): 3.7** μg mL^−1
C22:0 concentration, Triglycerides (Triglycerides, mean): 3.5 µg/mL
C22:4n6 concentration, Triglycerides (Triglycerides, mean): 2.5* μg mL^−1
C22:5n3 concentration, Triglycerides (Triglycerides, mean): 49.9* μg mL^−1
C22:5n6 concentration, Triglycerides (Triglycerides, mean): 2.5 µg/mL
C22:6n3 concentration, Triglycerides (Triglycerides, mean): 0.6** μg mL^−1
C24:0 concentration, Triglycerides (Triglycerides, mean): 1.2 µg/mL
C24:1n9 concentration, Triglycerides (Triglycerides, mean): 2.3 µg/mL
Total fatty acids concentration, Triglycerides (Triglycerides, mean): 556* μg mL^−1
C14:0 composition, Triglycerides [3]: 4.77* %
C16:0 composition, Triglycerides [3]: 24.2%
C16:1n7 composition, Triglycerides [3]: 1.10%
C16:1n7t composition, Triglycerides [3]: 0.12%
C18:0 composition, Triglycerides [3]: 14.5%
C18:1n9 composition, Triglycerides [3]: 29.0%
C18:1t composition, Triglycerides [3]: 1.09%
C18:2n6 composition, Triglycerides [3]: 7.68** %
C18:2n6t composition, Triglycerides [3]: 1.64* %
C18:3n3 composition, Triglycerides [3]: 0.33%
C18:3n6 composition, Triglycerides [3]: 0.13%
C20:0 composition, Triglycerides [3]: 0.28%
C20:1n9 composition, Triglycerides [3]: 1.01%
C20:2n6 composition, Triglycerides [3]: 0.31%
C20:3n6 composition, Triglycerides [3]: 1.5%
C20:4n6 composition, Triglycerides [3]: 0.46*** %
C20:5n3 composition, Triglycerides [3]: 0.67%
C22:0 composition, Triglycerides [3]: 0.63%
C22:4n6 composition, Triglycerides [3]: 0.45%
C22:5n3 composition, Triglycerides [3]: 8.98*** %
C22:5n6 composition, Triglycerides [3]: 0.45* %
C22:6n3 composition, Triglycerides [3]: 0.12*** %
C24:0 composition, Triglycerides [3]: 0.23%
C24:1n9 composition, Triglycerides [3]: 0.41%
EPA/AA, Cholesterol ester (Table 5.5) (ratio, Cholesterol ester): 0.039*
EPA/AA, Cholesterol ester (Table 5.6) (ratio, Cholesterol ester): 0.039*
EPA/AA, Free fatty acids (Table 5.5) (ratio, Free fatty acids): 2.94*
EPA/AA, Free fatty acids (Table 5.6) (ratio, Free fatty acids): 2.94*
EPA/AA, Phospholipids (Table 5.5) (ratio, Phospholipids): 0.038*
EPA/AA, Phospholipids (Table 5.6) (ratio, Phospholipids): 0.038
EPA/AA, Total (Table 5.5) (ratio, Total lipids): 0.030**
EPA/AA, Total (Table 5.6) (ratio, Total lipids): 0.030**
EPA/AA, Triglycerides (Table 5.5) (ratio, Triglycerides): 1.51**
EPA/AA, Triglycerides (Table 5.6) (ratio, Triglycerides): 1.51**
